Changes are numbered by the printed parent chain. Like-named read-outs stand apart in the source and are kept apart here. No end group written: not given here.
Key:
Assay type in all cases: cell-based
Design in all cases: WT (1–553); expressed in transfected cells; HEK 293T (cAMP)
[1] = target: T1, GLP-2R W249^ECL1A (Homo sapiens, UniProt O95838, W249A); experiment: cAMP accumulation, W249^ECL1A; settings: HEK 293T, 30 min, RT, mean ± SEM, n ≥ 3 in duplicate; for Emax: HEK-293T, read-out: cAMP Emax (% WT); for EC50: read-out: cAMP pEC50 (converted)
T1 sequence (O95838 1-553 W249A): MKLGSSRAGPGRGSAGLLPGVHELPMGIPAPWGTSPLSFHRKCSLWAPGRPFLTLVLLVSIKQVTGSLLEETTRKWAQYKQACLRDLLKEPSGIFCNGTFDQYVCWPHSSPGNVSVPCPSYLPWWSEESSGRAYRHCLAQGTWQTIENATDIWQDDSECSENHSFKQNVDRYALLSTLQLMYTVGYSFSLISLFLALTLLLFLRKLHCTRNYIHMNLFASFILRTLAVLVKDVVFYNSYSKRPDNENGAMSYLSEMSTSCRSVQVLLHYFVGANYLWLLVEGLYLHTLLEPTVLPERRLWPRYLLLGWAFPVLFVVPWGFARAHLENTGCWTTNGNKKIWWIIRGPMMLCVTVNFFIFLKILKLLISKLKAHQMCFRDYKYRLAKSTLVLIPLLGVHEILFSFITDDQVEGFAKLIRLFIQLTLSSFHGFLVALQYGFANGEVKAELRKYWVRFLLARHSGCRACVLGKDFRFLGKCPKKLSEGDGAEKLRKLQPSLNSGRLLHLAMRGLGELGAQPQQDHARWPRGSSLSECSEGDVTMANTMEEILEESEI
Protocol: (§1) They were seeded onto 6-well cell culture plates and transiently transfected with different GLP-2R constructs using Lipofectamine 2000 transfection reagent (Invitrogen, Carlsbad, CA, USA). After 24 h, the transfected cells were seeded onto 384-well microtiter plates (3000 cells per well) in HBSS supplemented with 5 mM HEPES, 0.1% (w/v) bovine serum albumin (BSA) and 0.5 mM 3-isobutyl-1- methylxanthine, and stimulated with increasing concentrations of GLP-2 for 30 min at RT. Eu and Ulight were diluted by cAMP detection buffer and added to the plates separately to terminate the reaction. Plates were incubated at RT for 60 min before measuring the fluorescence intensity at 620 nm and […] by an EnVision multilabel plate reader (PerkinElmer, Boston, USA).

[2] = target: T2, GLP-2R Y252^ECL1A (Homo sapiens, UniProt O95838, Y252A); experiment: cAMP accumulation, Y252^ECL1A; settings: HEK 293T, 30 min, RT, mean ± SEM, n ≥ 3 in duplicate; for Emax: HEK-293T, read-out: cAMP Emax (% WT); for EC50: read-out: cAMP pEC50 (converted)
T2 sequence (O95838 1-553 Y252A): T1 sequence (O95838 1-553 W249A) with A249W, Y252A
Protocol: as §1

[3] = target: T3, GLP-2R R242^ECL1A (Homo sapiens, UniProt O95838, R242A); experiment: cAMP accumulation, R242^ECL1A; settings: 30 min, RT, mean ± SEM, n ≥ 3 in duplicate; for Emax: HEK-293T, read-out: cAMP Emax (% WT); for EC50: HEK 293T, read-out: cAMP pEC50 (converted)
T3 sequence (O95838 1-553 R242A): T1 sequence (O95838 1-553 W249A) with R242A, A249W
Protocol: as §1, with “HEK 293T cells were cultured in Dulbecco’s Modified Eagle’s Medium (DMEM) (Gibco, Waltham, USA) supplemented with 10% (v/v) fetal bovine serum (FBS) (Gibco) and 1% (v/v) sodium pyruvate (Gibco) at 37 °C, 5% CO2 in a humidified incubator. They” for “They”

| Emax ([2]; Table S5, Y252A) | Emax ([3]; Table S5, R242A) | EC50 ([1]; Table S5, W249A) | EC50 ([2]; Table S5, Y252A) | EC50 ([3]; Table S5, R242A) | Compound | Emax ([1]; Table S3, W249A) | Emax ([1]; Table S5, W249A) | Emax ([2]; Table S3, Y252A) | Emax ([3]; Table S3, R242A) |
| --- | --- | --- | --- | --- | --- | --- | --- | --- | --- |
| 104 ± 2.1% | 102 ± 3.1% | 6310 nM | 3.98 nM | 1.26 nM | HADGSFSDEMNTILDNLAAKEFIAWLVKGRG [Chimeric GLP-1/GLP-2 (20-33)] |  |  |  |  |
| 106 ± 5.1% | 106 ± 4.9% |  | 50.1 nM | 25.1 nM | HADGSFTSDVSSYLEGQAARDFINWLIQTKITD [Chimeric GLP-1/GLP-2 (7-19)] |  |  |  |  |
| 103 ± 3.1% | 105 ± 3.2% | 1260 nM | 6.31 nM | 7.94 nM | HAEGTFSDEMNTILDNLAARDFINWLIQTKITD [Chimeric GLP-1/GLP-2 (1-6)] |  |  |  |  |

| Compound | Emax ([2]; Table S5, Y252A) | Emax ([3]; Table S5, R242A) | EC50 ([1]; Table S5, W249A) | EC50 ([2]; Table S5, Y252A) | EC50 ([3]; Table S5, R242A) | Emax ([1]; Table S3, W249A) | Emax ([1]; Table S5, W249A) | Emax ([2]; Table S3, Y252A) | Emax ([3]; Table S3, R242A) |
| --- | --- | --- | --- | --- | --- | --- | --- | --- | --- |
| CC[C@H](C)[C@H](NC(=O)[C@H](Cc1ccccc1)NC(=O)[C@H](CC(=O)O)NC(=O)[C@H](CCCNC(=N)N)NC(=O)[C@H](C)NC(=O)[C@H](C)NC(=O)[C@H](CC(C)C)NC(=O)[C@H](CC(N)=O)NC(=O)[C@H](CC(=O)O)NC(=O)[C@H](CC(C)C)NC(=O)[C@@H](NC(=O)[C@@H](NC(=O)[C@H](CC(N)=O)NC(=O)[C@H](CCSC)NC(=O)[C@H](CCC(=O)O)NC(=O)[C@H](CC(=O)O)NC(=O)[C@H](CO)NC(=O)[C@H](Cc1ccccc1)NC(=O)[C@H](CO)NC(=O)CNC(=O)[C@H](CC(=O)O)NC(=O)[C@H](C)NC(=O)[C@@H](N)Cc1c[nH]cn1)[C@@H](C)O)[C@@H](C)CC)C(=O)N[C@@H](CC(N)=O)C(=O)N[C@@H](Cc1c[nH]c2ccccc12)C(=O)N[C@@H](CC(C)C)C(=O)N[C@H](C(=O)N[C@@H](CCC(N)=O)C(=O)N[C@H](C(=O)N[C@@H](CCCCN)C(=O)N[C@H](C(=O)N[C@H](C(=O)N[C@@H](CC(=O)O)C(=O)O)[C@@H](C)O)[C@@H](C)CC)[C@@H](C)O)[C@@H](C)CC [Human GLP-2 (1–33)] | 102 ± 2.2% | 104 ± 2.3% |  |  |  | 128 ± 162% | 113 ± 4.1% | 103 ± 2.6% | 107 ± 3.4% |

— publication PMC7785020, “A unique hormonal recognition feature of the human glucagon-like peptide-2 receptor” (Cell Research, 2020)
